Data published in patent publication US20160281125A1, “ANTIMICROBIAL COMPOUND SUSCEPTIBILITY TEST” (priority 2013, published 2016).

Tests used:
K. pneumo 700603 = assay: Selective lysis test, OD600 turbidity (Example 1); type: cell-based, Klebsiella pneumoniae
Method: (§1) An isolated colony from an overnight Tryptocase Soy Agar (TSA) plate of each bacterial strain was suspended in 1 ml Tryptocasc Soy Broth (TSB) in a 5 ml BD polystyrene round bottom tube. TSB cultures were incubated shaking at 37° C. overnight. Ten of the overnight culture was inoculated into lml TSB and incubated shaking at 37° C. for three hours. Two […] aliquots of each log-phase culture were then transferred to two 2 ml Eppendorf microcentrifuge tubes. One tube contained 5000 of Normal Saline (BD); the second tube contained 5000 Normal Saline with meropenem at 10 μg/ml (final concentration of meropenem of 6.67 10 μg/ml). Tubes were inverted and then incubated at 37° C. stagnant for thirty minutes. Then […] of lysis buffer (0.5% SDS in PSB) (final concentration of SDS of 0.125%) was added to each tube and the tubes were vortexed for 5 seconds. Post incubation, all tubes were spun at 10000 G for 5 minutes. Supernatant was decanted and the pellet resuspended in Normal Saline. Tubes were vortexed again. OD600 was measured using Eppendorf uvettes in a spectrophotometer. The delta between the OD600 of the normal saline control and the OD600 for the test sample exposed to meropenem in normal saline was used to determine susceptibility of the bacterial strain to meropenem.

K. pneumo 9633 = assay: Selective lysis test, OD600 turbidity (Example 1); type: cell-based, Klebsiella pneumoniae
Method: as §1

K. pneumo 8308 = assay: Selective lysis test, OD600 turbidity (Example 1); type: cell-based, Klebsiella pneumoniae
Method: as §1

K. pneumo 33495 = assay: Selective lysis test, OD600 turbidity (Example 1); type: cell-based, Klebsiella pneumoniae
Method: as §1

K. oxy KPC 46532 = assay: Selective lysis test, OD600 turbidity (Example 1); type: cell-based, Klebsiella oxytoca
Method: as §1
The tested resistant strains were Klebsiella pneumoniae carbapenemase (KPC)-producing bacteria (abbreviated “KPC”), KPC-producing Klebsiella oxytoca (abbreviated “KPC K. oxy), and Klebsiella pneumoniae producing Metallo-beta-lactamase-1 (NDM-1) (abbreviated “NDM”).

E. coli strain 25922 = assay: Selective lysis test, BacUni QuickFISH staining (Example 3); type: cell-based; details: FIG. 3; E. coli 25922; meropenem 10 μg/ml, 30 min, SDS lysis
From the text: (§2) An alternative to the spectrophotometer-based measurement of changes in turbidity for measuring cell lysis following treatment with the cell lysis conditions in Examples 1 and 2 is to stain samples using a stain that distinguishes between intact cells and lysed cells. In this example staining with BacUni QuickFISH™ was used to identify intact (i.e., non-lysed) cells. BacUN1 is a universal bacteria PNA probe that binds to an rRNA sequence present in most Gram-positive and Gram-negative bacteria. The PNA probe binds to universal rRNA in intact bacterial cells and the entire cell will appears green with fluorescent microscopy. If the bacterial cell had been lysed then the rRNA target would have been released from the bacterial cell and even of somewhat labeled it would not appear as a fluorescent bacterial cell.
(§3) An isolated colony from an overnight Tryptocase Soy Agar (TSA) plate of each bacteria was suspended in 1 ml Tryptocase Soy Broth (TSB) in a 5 ml BD polystyrene round bottom tube. TSB cultures were incubated at 37° C. overnight. Ten μl of overnight culture was inoculated into 1 ml TSB and incubated shaking at 37° C. for three hours. Two 250 μl aliquots of each log-phase culture was transferred to two 2 ml Eppendorf microcentrifuge tubes. One tube contained 500 μl of Normal Saline (BD); the second tube contained 500 μl Normal Saline with meropenem at 10 μg/ml. Tubes were inverted and then incubated at 37° C. stagnant for thirty minutes. Then […] (0.5% SDS in PSB) was added to each tube and the tubes were vortexed for 5 seconds. Post incubation, the entire culture was filtered through a 1 uM polycarbonate 18 mm filter. The filter was transferred to a plain glass slide and placed on a 55° C. heat block. Then 2 drops of 100% methanol were added to adhere the filter to the slide. Then 30 μl of BacUni QuickFISH™ hybridization buffer was added to the slide and a 50×22 mm coverslip was applied. The slide was then incubated at 55° C. for 15 minutes. The slide was viewed on fluorescence microscope using 60× oil immersion on Dual TxR/FITC. Images were taken with a 1 second exposure.

E. coli strain 35218 = assay: as above; type: cell-based; details: FIG. 3; E. coli 35218; meropenem 10 μg/ml, 30 min, SDS lysis
From the text: as §2, §3

[1] = system: K. pneumoniae strain BAA1705 KPC+; assay: as above; type: cell-based; details: FIG. 5, meropenem 10 μg/ml, 30 min, SDS lysis
From the text: as §2, §3

[2] = system: K. pneumoniae strain 13882; assay: as above; type: cell-based; details: FIG. 2; K. pneumoniae 13882; meropenem 10 μg/ml, 30 min, SDS lysis
From the text: as §2, §3

E. coli strain 23858 = assay: as above; type: cell-based; details: FIG. 2; E. coli 23858; meropenem 10 μg/ml, 30 min, SDS lysis
From the text: as §2, §3

[3] = system: K. pneumoniae strain BAA2146 NDM+; assay: as above; type: cell-based; details: FIG. 5, meropenem 10 μg/ml, 30 min, SDS lysis
From the text: as §2, §3

[4] = system: E. coli strain BAA-197 ESβL; assay: as above; type: cell-based; details: FIG. 1; E. coli BAA-197 ESβL; meropenem 10 μg/ml, 30 min, SDS lysis
From the text: as §2, §3

[5] = system: K. pneumoniae strain 3456; assay: as above; type: cell-based; details: FIG. 1; K. pneumoniae 3456; meropenem 10 μg/ml, 30 min, SDS lysis
From the text: as §2, §3

[6] = OD600 vs control without meropenem
[7] = meropenem 10 μg/ml, 30 min, SDS lysis buffer + vortex

C[C@@H](O)[C@H]1C(=O)N2C(C(=O)O)=C(S[C@@H]3CN[C@H](C(=O)N(C)C)C3)[C@H](C)[C@H]12 [meropenem]
R or S (K. pneumo 700603): S (a percentage change of greater than about 85% indicates a strain is susceptible) | % Change (K. pneumo 700603; [6]): 94% | Mero OD600 (K. pneumo 700603; [7]): 0.065 | R or S (K. pneumo 9633): S (a percentage change of greater than about 85% indicates a strain is susceptible) | % Change (K. pneumo 9633; [6]): 99% | Mero OD600 (K. pneumo 9633; [7]): 0.015 | R or S (K. pneumo 8308): S (a percentage change of greater than about 85% indicates a strain is susceptible) | % Change (K. pneumo 8308; [6]): 98% | Mero OD600 (K. pneumo 8308; [7]): 0.053 | R or S (K. pneumo 33495): S (a percentage change of greater than about 85% indicates a strain is susceptible) | % Change (K. pneumo 33495; [6]): 95% | Mero OD600 (K. pneumo 33495; [7]): 0.097 | R or S (K. oxy KPC 46532): S (a percentage change of greater than about 85% indicates a strain is susceptible) | % Change (K. oxy KPC 46532; [6]): 71% | Mero OD600 (K. oxy KPC 46532; [7]): 0.259 | number of BacUni QuickFISH stained cells, treated vs not treated (E. coli strain 25922): significant reduction in the number of stained cells | number of BacUni QuickFISH stained cells, treated vs not treated (E. coli strain 35218): significant reduction in the number of stained cells | number of BacUni QuickFISH stained cells, treated vs not treated [1]: similarity in the number of stained cells | number of BacUni QuickFISH stained cells, treated vs not treated [2]: significant reduction in the number of stained cells | number of BacUni QuickFISH stained cells, treated vs not treated (E. coli strain 23858): significant reduction in the number of stained cells | number of BacUni QuickFISH stained cells, treated vs not treated [3]: similarity in the number of stained cells | number of BacUni QuickFISH stained cells, treated vs not treated [4]: significant reduction in the number of stained cells | number of BacUni QuickFISH stained cells, treated vs not treated [5]: significant reduction in the number of stained cells
